Data: patent US9546401B2, “Assays and methods for selecting a treatment regimen for a subject with depression” (The General Hospital Corporation, priority 2011, dated 2017)
Like-named read-outs stand apart in the source and are kept apart here.

Test system: MDD patients carrying the indicated biomarkers
Experimental: Folate levels are classified as either low (<=2.5 ng/ml) or normal; and homocysteine levels as either normal or elevated (>=[…]). The presence or absence of at least one […] allele for the MTHFR gene are entered as a dichotomous variable (present or absent). […] Using folate as an example predicator, the presence or absence of a low serum-folate level along with treatment assignment can be entered in a 2×2, factorial ANOVA, using depression improvement scores (baseline minus endpoint HAM-D-17 scores) as the dependant variable. […] Similar analyses (i.e. separate 2×2 ANOVA's) can be performed substituting the presence of low folate levels for the presence of other predictors as described herein. Similarly, the effect of other predictors can be indicated by the interaction term representing the potential modulating influence of those variables.
The efficacy effect is determined by measuring the mean change in the HAMD-17 score and HAMD-28 score by the end of Phase I and Phase II, as compared to the baseline.

[1] = Phase II, BMI < 30 kg/m^2 and HNE-His < median
[2] = Phase II, BMI < 30 kg/m^2 and SAM/SAH >= median
[3] = Phase II, BMI >= 30 kg/m^2 and HNE-His >= median
[4] = Phase II, BMI*treat (interaction of BMI with the treatment)
[5] = Phase II, MTHFR 677 CC and BMI < 30 kg/m^2
[6] = Phase II, MTHFR 677 CT or TT and BMI >= 30 kg/m^2
[7] = Phase II, MTHFR 677 CT or TT and HNE-His >= median
[8] = Phase II, MTR 2756 AA and BMI < 30 kg/m^2
[9] = Phase II, MTR 2756 AA and HNE-His < median
[10] = Phase II, MTR 2756 AA and MTRR 66 AA
[11] = Phase II, MTR 2756 AA and MTRR 66 AA and SAM/SAH >= median
[12] = Phase II, MTR 2756 AA and SAM/SAH >= median
[13] = Phase II, MTR 2756 AG or GG and BMI >= 30 kg/m^2
[14] = Phase II, MTR 2756 AG or GG and MTRR 66 AG or GG
[15] = Phase II, MTR 2756 AG or GG and MTRR 66 AG or GG and HNE-His >= median
[16] = Phase II, MTRR 66 AA and SAM/SAH >= median
[17] = Phase II, MTRR 66 AG or GG and HNE-His >= median
[18] = Phase II, SAM/SAH < median and HNE-His >= median
[19] = Phase II, SAM/SAH >= median and HNE-His < median
[20] = Pooled phases, 25 =< BMI < 30 kg/m^2

With `CN1c2c(nc(N)[nH]c2=O)NC[C@@H]1CNc1ccc(C(=O)N[C@@H](CCC(=O)O)C(=O)O)cc1` [6(S)-5-MTHF, 6(S)-5-methyltetrahydrofolate] the “Effect on change in HAMD-28 score” value (Phase II, BMI < 25) was −2.300, the “Effect on change in HAMD-17 score” value [1] was 3.667 and the “Effect on change in HAMD-28 score” value [1] was 1.833. The “Effect on change in HAMD-17 score” value [2] was 1.500, the “Effect on change in HAMD-28 score” value [2] was 2.500 and the “Effect on change in HAMD-17 score” value (Phase II, BMI >= 30 kg/m^2) was −3.009. The “Effect on change in HAMD-28 score” value (Phase II, BMI >= 30 kg/m^2) was −3.245, the “Effect on change in HAMD-17 score” value [3] was −4.233 and the “Effect on change in HAMD-28 score” value [3] was −4.933. The “Effect on change in HAMD-17 score” value (Phase II, BMI >= 30 kg/m^2 and SAM/SAH < median) was −9.200, the “Effect on change in HAMD-28 score” value (Phase II, BMI >= 30 kg/m^2 and SAM/SAH < median = 2.71 (plasma)) was −10.350 and the “Effect on change in HAMD-17 score” value [4] was 0.113. The “Effect on change in HAMD-28 score” value [4] was 0.082, the “Effect on change in HAMD-17 score” value [5] was −2.267 and the “Effect on change in HAMD-28 score” value [5] was −3.000. For the same compound, the “Effect on change in HAMD-17 score” value (Phase II, MTHFR 677 CC and HNE-His < median) was −0.857, the “Effect on change in HAMD-28 score” value (Phase II, MTHFR 677 CC and HNE-His < median = 3.28 (plasma)) was −0.536 and the “Effect on change in HAMD-17 score” value [6] was −7.333. The “Effect on change in HAMD-28 score” value [6] was −8.667, the “Effect on change in HAMD-17 score” value [7] was −7.500 and the “Effect on change in HAMD-28 score” value [7] was −7.500. For the same compound, the “Effect on change in HAMD-17 score” value (Phase II, MTR 2756 AA) was −0.427, the “Effect on change in HAMD-28 score” value (Phase II, MTR 2756 AA) was −0.446 and the “Effect on change in HAMD-17 score” value [8] was 1.167. The “Effect on change in HAMD-28 score” value [8] was 0.917, the “Effect on change in HAMD-17 score” value [9] was 0.300 and the “Effect on change in HAMD-28 score” value [9] was −0.125. The “Effect on change in HAMD-17 score” value [10] was −8.000, the “Effect on change in HAMD-28 score” value [10] was −8.000 and the “Effect on change in HAMD-17 score” value (Phase II, MTR 2756 AA and MTRR 66 AA and HNE-His < median) was −8.667. For the same compound, the “Effect on change in HAMD-28 score” value (Phase II, MTR 2756 AA and MTRR 66 AA and HNE-His < median = 3.28 (plasma)) was −9.000, the “Effect on change in HAMD-17 score” value [11] was −7.000 and the “Effect on change in HAMD-28 score” value [11] was −7.500. For the same compound, the “Effect on change in HAMD-17 score” value [12] was 1.971, the “Effect on change in HAMD-28 score” value [12] was 2.000 and the “Effect on change in HAMD-17 score” value [13] was −12.167. For the same compound, the “Effect on change in HAMD-28 score” value [13] was −13.000, the “Effect on change in HAMD-17 score” value (Phase II, MTR 2756 AG or GG and HNE-His >= median) was −8.417 and the “Effect on change in HAMD-28 score” value (Phase II, MTR 2756 AG or GG and HNE-His >= median = 3.28 (plasma)) was −9.500. The “Effect on change in HAMD-17 score” value [14] was −4.667, the “Effect on change in HAMD-28 score” value [14] was −6.583 and the “Effect on change in HAMD-17 score” value [15] was −11.000. The “Effect on change in HAMD-28 score” value [15] was −12.000, the “Effect on change in HAMD-17 score” value (Phase II, MTR 2756 AG or GG and MTRR 66 AG or GG and SAM/SAH < median) was −6.500 and the “Effect on change in HAMD-28 score” value (Phase II, MTR 2756 AG or GG and MTRR 66 AG or GG and SAM/SAH < median = 2.71 (plasma)) was −10.500. The “Effect on change in HAMD-17 score” value (Phase II, MTR 2756 AG or GG and SAM/SAH < median) was −2.500, the “Effect on change in HAMD-28 score” value (Phase II, MTR 2756 AG or GG and SAM/SAH < median = 2.71 (plasma)) was −7.500 and the “Effect on change in HAMD-17 score” value (Phase II, MTR 2756 AG/GG) was −3.600. The “Effect on change in HAMD-28 score” value (Phase II, MTR 2756 AG/GG) was −5.300, the “Effect on change in HAMD-17 score” value (Phase II, MTRR 66 AA and HNE-His < median) was −1.667 and the “Effect on change in HAMD-28 score” value (Phase II, MTRR 66 AA and HNE-His < median = 3.28 (plasma)) was −2.000. The “Effect on change in HAMD-17 score” value [16] was −3.000, the “Effect on change in HAMD-28 score” value [16] was −3.333 and the “Effect on change in HAMD-17 score” value [17] was −3.500. For the same compound, the “Effect on change in HAMD-28 score” value [17] was −4.071, the “Effect on change in HAMD-17 score” value (Phase II, MTRR 66 AG or GG and SAM/SAH < median) was −6.190 and the “Effect on change in HAMD-28 score” value (Phase II, MTRR 66 AG or GG and SAM/SAH < median = 2.71 (plasma)) was −7.381. For the same compound, the “Effect on change in HAMD-17 score” value [18] was −9.000, the “Effect on change in HAMD-28 score” value [18] was −12.000 and the “Effect on change in HAMD-17 score” value [19] was 4.000. For the same compound, the “Effect on change in HAMD-28 score” value [19] was 4.500, the “Effect on change in HAMD-28 score” value (Phase II, SAM/SAH*treat, first line under HAMD28) was 1.483 and the “Effect on change in HAMD-17 score” value (Phase II, baseHAMD-17*treat (interaction of base HAMD-17 with the treatment)) was −0.249. For the same compound, the “Effect on change in HAMD-17 score” value [20] was 3.331, the “Effect on change in HAMD-28 score” value [20] was 2.054 and the “Effect on change in HAMD-17 score” value (Pooled phases, BMI < 25) was −1.248.
